Source: US20050054097A1, “EX-VIVO expansion of hematopoietic system cell populations in mononuclear cell cultures” (priority 2002, published 2005)

Assays:
[1] = test system: cord blood mononuclear cells (MNC); test: Ex-vivo expansion of CD34+ cells in mononuclear cell (MNC) cultures; CD34+ cells reselected and counted; assay type: cell-based, human; conditions: for cumulative number of CD34+ cells: MNC culture, cytokines, TEPA 5-10 μM for first three weeks
Experimental: Sample collection and processing: Samples were obtained from umbilical cord blood after a normal full-term delivery and were frozen within 24 hours pospartum. The blood cells were thawed in Dextran buffer and incubated for 15 hours in MEM (Biological Industries, Israel) supplemented with 10% fetal calf serum (FCS; Biological Industries). The cells were then layered on Ficoll-Hypaque (density 1.077 gram/ml; Sigma) and centrifuged at 400 g for 30 minutes at room temperature. The mononuclear cells in the interface layer were then collected, washed three times in phosphate-buffered saline (PBS; Biological Industries), and re-suspended in PBS containing 0.5% human serum albumin (HSA). The cells were then split into two fractions, the first being the mononuclear cells (MNC) fraction and the second fraction was used for purifying CD34^+ cells by immunomagnetic separation using the “MiniMACS CD34^+ progenitor cell isolation kit” (Miltenyi Biotec, Auburn, Calif.) according to the manufacturer's recommendations. The purity of the CD34^+ cells obtained ranged between 95% and 98%, based on Flow Cytometry evaluation.
Ex-vivo expansion of hematopoietic stem cells: The Mononuclear cells (MNC), obtained as described hereinabove, were plated in 24-well Costar Cell Clusters (Corning Inc., Corning, N. Y.) or seeded in Culture Bags (American Fluoroseal Corp.), with alpha minimal essential medium (a-MEM) supplemented with 10% fetal bovine serum (FBS, Biological Industries), at a concentration of about 10^6 cells/ml. […]
Determination of CD34+ cells and subsets: CD34+ surface expression on short and long-term cultures initiated either with purified CD34+ cells or the entire MNC fraction was determined as follows: CD34+ cells were positively reselected (Miltenyi kit) and counted. […]
Mononuclear cells (MNC) were seeded in culture bags and were provided with nutrients and cytokines (50 ng/ml FLt3, IL-6, TPO and SCF) as described above. […] The cultures were analyzed weekly during a 12-week period for the number of cells, CFUc, CD34+ and CD34+CD38− cells. […]

[2] = test system: cord blood mononuclear cells (MNC); test: FACS analysis of reselected CD34+ cell subsets (CD34+CD38-, CD34+Lin-) from MNC cultures; assay type: cell-based, human; conditions: for cumulative number of CD34+CD38- cells: cytokines; for CD34+Lin- cells by FACS from reselected CD34+ cell fraction: MNC with RAR antagonists and cytokines
Experimental: Surface antigen analysis: Cells were harvested, washed with a PBS solution containing 1% bovine sera albumin (BSA) and 0.1% sodium azide (Sigma), ind stained at 4° C. for 60 minutes with fluorescein isothiocyanate or phycoerythrin-conjugated antibodies (all from Immunoquality Products, the Netherlands). The cells were then washed with the same buffer and analyzed by FACS caliber or Facstarplus flow cytometers. Cells were passed at a rate of 1000 cells/second, using saline as the sheath fluid. A 488 nm argon laser beam served as the light source for excitation. Emission of ten thousand cells was measured using logarithmic amplification, and analyzed using CellQuest software.
Reselected CD34+ cell subsets were stained for the following combination of antigens: CD34PE/CD38FITC and CD34PE/38-, 33-, 14-, 15-, 3, 4, 61, 19 (Lin) FITC.
FACS analysis results are given as percentage values of cells. Absolute numbers of subsets are calculated from the absolute number of CD34+ cells.
Determination of baseline levels of CD34^+/CD38− and CD34^+/Lin^− cells was conducted as follows: CD34+ cells were purified from 3 thawed cord blood units and stained for the above markers. The mean of these experiments was considered as the baseline value.
(§1) Total cell counts, numbers of CD34+ cells and subsets, and CFU numbers are presented as cumulative numbers, with the assumption that the cultures had not been passaged; i.e., the number of cells per ml were multiplied by the number of passages performed.

[3] = test system: cord blood mononuclear cells (MNC); test: Colony forming unit (CFU) ability of MNC cultures; assay type: cell-based, human; conditions: MNC culture, cytokines, TEPA 5-10 μM for first three weeks
Experimental: as §1
Assaying Colony Forming Unit (CFU) ability: Cells were cloned in semi-solid, methylcellulose-containing medium supplemented with 2 IU/ml erythropoietin (Eprex, Cilag AG Int., Switzerland), stem cell factor and IL-3, both at 20 ng/ml, and G-CSF and GM-CSF, both at 10 ng/ml (all from Perpo Tech). Cultures were incubated for 14 days at 37° C., 5% CO2 in a humidified atmosphere.
Determination of LTC-CFUc values: The ability of the cultures to maintain self-renewal was measured by determination of the content of colony forming unit cells in the long and extended long-term cultures (LTC-CFUc), as described in the references hereinabove.

[4] = test system: cord blood mononuclear cells (MNC); test: Morphological assessment of long-term MNC cultures (May-Grunwald/Giemsa); assay type: cell-based, human; conditions: long-term TEPA-treated MNC cultures
Excerpt: Morphological assessment: Morphological characterization of the resulting culture populations was accomplished on aliquots of cells deposited on glass slides via cytospin (Cytocentrifuge, Shandon, Runcorn, UK). Cells were fixed, stained with May-Grunwald/Giemsa stain and examined microscopically.

CD34+ cell cultures = conditions: early acting cytokines, 5-10 μM TEPA (b8), atomic absorption; cited from earlier work
[5] = test system: cord blood mononuclear cells (MNC); test: Ex-vivo expansion of CD34+ cells in mononuclear cell (MNC) cultures; CD34+ cells reselected and counted; assay type: cell-based, human; conditions: for cumulative number of CD34+ cells per culture bag: cytokines, eight weeks incubation; for Number of CD34+ cells (×10^4) / Portion of CD34+ cells (%): 8 weeks
[6] = cytokines + RAR antagonist 10^-6 M, 2 weeks
[7] = cytokines + RAR antagonist 10^-6 M, 5 weeks

NCCNCCNCCNCCN [TEPA, tetraethylenepentamine]
cumulative number of CD34+ cells ([1]; after 2 weeks): non-detectable
cumulative number of CD34+ cells ([1]; after 12 weeks): over 8×10^7 cells/ml
stem and progenitor cells densities versus pre-purified CD34+ cell cultures (not treated with TEPA) ([1]; TEPA-treated MNC cultures, 12-week period): either equalized or surpassed
cumulative number of CD34+CD38- cells ([2]; MNC culture, TEPA 5-10 μM for first three weeks, after 2 weeks): non-detectable
cumulative number of CD34+CD38- cells ([2]; MNC culture, TEPA 5-10 μM for first three weeks, after 12 weeks): 2.5×10^7 cells/ml
number of CD34+ CFUs ([3]; after 2 weeks): non-detectable
number of CD34+ CFUs ([3]; after 10 weeks): 3.2×10^7 cells/ml
morphological analysis of cells from long-term cultures [4]: a high proportion of non-differentiated cells
reduction of cell copper content (CD34+ cell cultures): 30%

tetraethylenepentamine-copper chelate [Cu-TEPA chelate]
cumulative number of CD34+CD38- cells ([2]; 100 μM Copper-TEPA for first three weeks, eight weeks incubation): 6.1×10^5
Number of CD34/38- cells (×10^4) ([2]; Cu-TEPA chelate 100 μM, 8 weeks): 61 ×10^4
cumulative number of CD34+ cells per culture bag ([5]; 50 μM Copper-TEPA for first three weeks): 12.37×10^6 cells per culture bag
cumulative number of CD34+ cells per culture bag ([5]; 100 μM Copper-TEPA for first three weeks): 32.85×10^6 cells per culture bag
Number of CD34+ cells (×10^4) ([5]; Cu-TEPA chelate 50 μM): 1237.3 ×10^4
Portion of CD34+ cells (%) ([5]; Cu-TEPA chelate 50 μM): 1.4%
Number of CD34+ cells (×10^4) ([5]; Cu-TEPA chelate 100 μM): 3285.3 ×10^4
Portion of CD34+ cells (%) ([5]; Cu-TEPA chelate 100 μM): 1.2%

CCc1ccc(C2=CC(C)(C)Sc3ccc(C#Cc4ccc(C(=O)O)cc4)cc32)cc1 [RAR antagonist]
CD34+Lin- cells by FACS from reselected CD34+ cell fraction ([2]; 2 weeks after initial seeding): 78%
CD34+Lin- cells by FACS from reselected CD34+ cell fraction ([2]; 5 weeks after initial seeding): 24%
% CD34/Lin- [2, 6]: 78.4%
No of CD34+/Lin- × 10^4 [2, 6]: 132.5 × 10^4
% CD34/Lin- [2, 7]: 24.1%
No of CD34+/Lin- × 10^4* [2, 7]: 237.8 × 10^4
No of CD34 cells × 10^4 [5, 6]: 169 × 10^4
No of CD34 cells × 10^4* [5, 7]: 985 × 10^4
